Results reported in ChEMBL document CHEMBL1821652, “QSAR models for predicting enzymatic hydrolysis of new chemical entities in 'soft-drug' design” (Bioorg Med Chem, 2009).
Residues, ends and D or L forms follow the SMILES beside them.

Experiment: Half life in human plasma
Format: ADME, cell-free

For `CC(=O)OCOC(=O)N(C)/N=N/c1ccc(Br)cc1`, which half-life is on record?
The half-life was 17 min.

For `CCOC(=O)c1ccc(/N=N/N(C)C(=O)OCOC(C)=O)cc1`, which half-life is on record?
The half-life was 12 min.

Which half-life does the source give for `CC(C)Cc1ccc([C@@H](C)C(=O)OCC(=O)N(C)C)cc1` here?
Its half-life is 1.5 min.

For `CCCN(CCC)S(=O)(=O)c1ccc(C(=O)OCN(CC(=O)OCC)C(=O)c2ccccc2)cc1`, which half-life is on record?
Its half-life is 46 min.

With `C[C@H](NC(=O)[C@H](N)CCC(=O)OCc1ccccc1)C(=O)O` as the compound, how does the half-life read?
Its half-life is 158 min.

For `CC(C)[C@H](N)C(=O)OCCOCn1cnc2c(=O)[nH]c(N)nc21` (stereo in doubt; 160) [VALACYCLOVIR], which half-life is on record?
Its half-life is 312 min.

For `CCCCCCCC(=O)OC[C@H]1O[C@@H](n2cnc3c(NC4CCCC4)ncnc32)[C@H](O)[C@@H]1O`, which half-life is on record?
Its half-life is 28 min.

For `CCC(=O)O[C@]1(C(=O)OCCl)CC[C@H]2[C@@H]3CCC4=CC(=O)CC[C@]4(C)[C@H]3[C@@H](O)C[C@@]21C`, which half-life is on record?
The half-life was 318 min.

With `CCCSc1ccc2c(c1)nc(NC(=O)OC)n2C(=O)OCC` as the compound, how does the half-life read?
The half-life was 8.32 min.

For `CCCC(CCC)C(=O)OCN(CC(=O)OCC)C(=O)c1ccccc1`, which half-life is on record?
Its half-life is 1320 min.

Which half-life does the source give for `CCOC(=O)[C@H](C)c1ccc(CC(C)C)cc1` here?
The half-life was 5580 min.

For `C[C@H](C(=O)OCC(=O)N(C)C)c1ccc(-c2ccccc2)c(F)c1`, which half-life is on record?
Its half-life is 11 min.

For `CCC1CCN(CC(=O)OCCn2c([N+](=O)[O-])cnc2C)CC1`, which half-life is on record?
The half-life was 46.5 min.

For `CCOC(=O)CNC(=O)OCN(c1ccc([N+](=O)[O-])cc1Oc1ccccc1)S(C)(=O)=O`, which half-life is on record?
The half-life was 954 min.

Which half-life does the source give for `COc1ccc2cc([C@H](C)C(=O)OCN(C)C(=O)c3ccccc3)ccc2c1` here?
Its half-life is 72 min.

With `CCN(CC)C(=O)COC(=O)[C@@H](C)c1ccc(-c2ccccc2)c(F)c1` as the compound, how does the half-life read?
Its half-life is 2.6 min.

With `CCN(CC)CC(=O)OCCn1c([N+](=O)[O-])cnc1C.Cl` as the compound, how does the half-life read?
The half-life was 33.6 min.

For `O=C(OC[C@H]1O[C@@H](n2cc(F)c(=O)[nH]c2=O)C[C@@H]1OC(=O)[C@@H]1CCCN1)[C@@H]1CCCN1`, which half-life is on record?
The half-life was 6 min.

With `Cc1nccn1CCOC(=O)[C@H](C)c1ccc(CC(C)C)cc1` as the compound, how does the half-life read?
Its half-life is 5.2 min.

Which half-life does the source give for `CCOC(=O)CSCC(=O)[C@@]12OC(C)(C)O[C@@H]1C[C@H]1[C@@H]3C[C@H](F)C4=CC(=O)C=C[C@]4(C)[C@@]3(F)[C@@H](O)C[C@@]12C` here?
The half-life was 24 min.

With `CCOC(=O)CN(COC(=O)c1ccccc1)C(=O)c1ccccc1` as the compound, how does the half-life read?
The half-life was 12 min.

For `CC(C)C[C@H](NC(=O)[C@H](Cc1ccccc1)NC(=O)CNC(=O)CN1C(=O)[C@H](Cc2ccc(O)cc2)NC12CCC(C)CC2)C(=O)O` (stereo partly specified), which half-life is on record?
The half-life was 1130 min.

With `Nc1ccc(S(=O)(=O)N(COC(=O)c2ccccc2)c2ncccn2)cc1` as the compound, how does the half-life read?
The half-life was 1.38 min.

For `C[C@H](NC(=O)[C@H](N)CCC(=O)OCCc1ccccc1)C(=O)O`, which half-life is on record?
The half-life was 97 min.

Which half-life does the source give for `CC(C)(C)C(=O)OCN(c1ccc([N+](=O)[O-])cc1Oc1ccccc1)S(C)(=O)=O` here?
The half-life was 102 min.

For `Cc1ncc([N+](=O)[O-])n1CCOC(=O)CCCCC(=O)OCCn1c([N+](=O)[O-])cnc1C`, which half-life is on record?
Its half-life is 16.8 min.

With `CC(C)OC(=O)[C@@H](N)Cc1ccc(O)c(O)c1` as the compound, how does the half-life read?
Its half-life is 238 min.

Which half-life does the source give for `CCOC(=O)c1ccc(/N=N/N(C)C(=O)OCOC(=O)c2ccccc2OC(C)=O)cc1` here?
Its half-life is 1 min.

For `CSCOC(=O)[C@@]1(O)CC[C@H]2[C@@H]3CCC4=CC(=O)C=C[C@]4(C)[C@H]3[C@@H](O)C[C@@]21C`, which half-life is on record?
Its half-life is 2100 min.

Which half-life does the source give for `CC(C)Cc1ccc([C@H](C)C(=O)OCC(=O)N(C)C)cc1` here?
The half-life was 7 min.

With `CCCCC(=O)OCN1C(=O)NC(c2ccccc2)(c2ccccc2)C1=O` as the compound, how does the half-life read?
The half-life was 1.9 min.

For `CC(C)C[C@H]1NC(=O)[C@H](Cc2ccccc2)NC(=O)CNC(=O)[C@@H](C)NC(=O)[C@H](Cc2ccc(O)cc2)NC(=O)/C=C\c2ccccc2OC1=O`, which half-life is on record?
Its half-life is 72 min.

For `Cc1ncc([N+](=O)[O-])n1CCOC(=O)CN1CCC(c2ccccc2)CC1`, which half-life is on record?
Its half-life is 138 min.

Which half-life does the source give for `COC(=O)[C@H](Cc1ccc(O)c(O)c1)NC(=O)CCCC[C@@H]1CCSS1` here?
The half-life was 97.8 min.

With `O=C(OCN(C(=O)c1ccccc1)c1ccccc1)c1ccccc1` as the compound, how does the half-life read?
Its half-life is 40 min.

Which half-life does the source give for `COC(=O)[C@H](Cc1ccccc1)NC(=O)CN.Cl` (H-Gly-Phe-OMe) here?
Its half-life is 10 min.

For `COc1ccc2c(c1)c(CC(=O)NCCOCCOCCO)c(C)n2C(=O)c1ccc(Cl)cc1`, which half-life is on record?
The half-life was 4440 min.

Which half-life does the source give for `NCC(=O)N[C@@H](Cc1ccccc1)C(=O)O` (H-Gly-Phe-OH) here?
The half-life was 71.5 min.

With `CC(=O)OCOC(=O)N(C)/N=N/c1ccc(C#N)cc1` as the compound, how does the half-life read?
Its half-life is 7 min.

Which half-life does the source give for `NCCCC[C@H](N)C(=O)OC[C@H]1O[C@@H](n2cc(F)c(=O)[nH]c2=O)C[C@@H]1OC(=O)[C@@H](N)CCCCN` here?
The half-life was 29.5 min.

For `CCOC(=O)CN(COC(=O)Cc1ccccc1Nc1c(Cl)cccc1Cl)C(=O)c1ccccc1`, which half-life is on record?
The half-life was 162 min.

For `CCOC(=O)CN(C)C(=O)OCN(c1ccc([N+](=O)[O-])cc1Oc1ccccc1)S(C)(=O)=O`, which half-life is on record?
Its half-life is 2950 min.

Which half-life does the source give for `CC(C)C(=O)Oc1ccc2c3c1O[C@H]1C(=O)CC[C@@]4(O)[C@@H](C2)N(CC2CC2)CC[C@]314` here?
Its half-life is 24.6 min.

Which half-life does the source give for `C[C@H](NC(=O)[C@H](N)CC(=O)OCc1ccccc1)C(=O)O` here?
Its half-life is 211 min.

For `Cc1cn(CCOC(=O)CC[C@H](N)C(=O)N(C)CC(=O)O)c(=O)[nH]c1=O`, which half-life is on record?
The half-life was 61.3 min.

With `CC(C)C[C@H]1NC(=O)[C@H](Cc2ccccc2)NC(=O)CNC(=O)[C@@H](C)NC(=O)[C@H](Cc2ccc(O)cc2)NC(=O)OCOC1=O` as the compound, how does the half-life read?
The half-life was 124 min.

For `CCOC(=O)CNC(=O)OCOC(=O)c1ccccc1`, which half-life is on record?
The half-life was 0.24 min.

With `Cc1cn([C@H]2C=C[C@@H](COC(=O)CNC(=O)c3ccncn3)O2)c(=O)[nH]c1=O` as the compound, how does the half-life read?
Its half-life is 60 min.

With `CCCCCCCCCCOC(=O)[C@H](Cc1ccccc1)NC(=O)CN.Cl` as the compound, how does the half-life read?
Its half-life is 61.5 min.

Which half-life does the source give for `CCN(CC)C(=O)COC(=O)[C@@H](C)c1ccc(CC(C)C)cc1` here?
Its half-life is 1.4 min.

With `C[C@H](NC(=O)[C@H](N)CCC(=O)OCc1ccc([N+](=O)[O-])cc1)C(=O)O` as the compound, how does the half-life read?
The half-life was 6.8 min.

Which half-life does the source give for `CCCN(CCC)Cc1ccc(C(=O)OCCOCn2cnc3c(=O)[nH]c(N)nc32)cc1` here?
The half-life was 9 min.

Which half-life does the source give for `CN(CC(=O)O)C(=O)[C@@H](N)CC(=O)OCc1ccccc1` here?
The half-life was 180 min.

With `NCCCC[C@H](N)C(=O)O[C@H]1C[C@H](n2cc(F)c(=O)[nH]c2=O)O[C@@H]1CO` as the compound, how does the half-life read?
The half-life was 51 min.

With `CCCN(CCC)Cc1cccc(C(=O)OCCOCn2cnc3c(=O)[nH]c(N)nc32)c1` as the compound, how does the half-life read?
Its half-life is 0.8 min.

For `CCOC(=O)c1ccc(/N=N/N(C)C(=O)OCOC(=O)c2ccccc2)cc1`, which half-life is on record?
Its half-life is 47 min.

With `Cc1cn([C@H]2C=C[C@@H](COC(=O)CN3CCNCC3)O2)c(=O)[nH]c1=O` as the compound, how does the half-life read?
Its half-life is 20 min.

With `CC(C)OC(=O)Oc1ccc2c3c1O[C@H]1C(=O)CC[C@@]4(O)[C@@H](C2)N(CC2CC2)CC[C@]314` as the compound, how does the half-life read?
Its half-life is 39 min.

With `Cc1cc(C)nc(N(COC(=O)C(C)(C)C)S(=O)(=O)c2ccc(N)cc2)n1` as the compound, how does the half-life read?
Its half-life is 244 min.

With `CCCC(=O)Oc1c(-c2ccc(O)c(O)c2)oc2cc(O)cc(O)c2c1=O` as the compound, how does the half-life read?
The half-life was 63 min.

With `CCCCOC(=O)[C@@H](N)Cc1ccc(O)c(O)c1` as the compound, how does the half-life read?
The half-life was 96 min.

With `C[C@@H](C(=O)OCCn1ccnc1)c1ccc(-c2ccccc2)c(F)c1` as the compound, how does the half-life read?
Its half-life is 18 min.

With `CC(C)CC(=O)Oc1ccc2c3c1O[C@H]1C(=O)CC[C@@]4(O)[C@@H](C2)N(CC2CC2)CC[C@]314` as the compound, how does the half-life read?
Its half-life is 32.4 min.

Which half-life does the source give for `CN(CC(=O)O)C(=O)[C@@H](N)CCC(=O)OCCOCn1cnc2c(=O)[nH]c(N)nc21` here?
The half-life was 72.7 min.

With `CCN(CC)Cc1cccc(C(=O)OCCOCn2cnc3c(=O)[nH]c(N)nc32)c1` as the compound, how does the half-life read?
Its half-life is 7.5 min.

Which half-life does the source give for `CCCCCCCCCCCCOC(=O)[C@H](Cc1ccccc1)NC(=O)CN.Cl` here?
Its half-life is 112 min.
